These are literature values, as cited in patent US11723868B2, “Biodegradable polymer microsphere compositions for parenteral administration” (Adare Pharmaceuticals USA, Inc., priority 2016, dated 2023).

Broadly, the logP is a log measure of how a compound divides between an organic and an aqueous phase.

The conditions of data set [1]: properties of drugs used, Table B.
For data set [2] the following is noted: properties of drugs used, Table B. The source holds these as a separate data set.

Molecules are shown by their SMILES.

As to `COc1cc2c(cc1Cc1cccc(Cl)c1F)c(=O)c(C(=O)O)cn2[C@H](CO)C(C)C` [Drug A, Elvitegravir], the “Water Solubility” value in data set [1] is below 3 µg/mL. Besides, the log partition coefficient (logP) in data set [2] is given as 4.67.

In the case of `C#C[C@]1(O)CC[C@H]2[C@@H]3CCC4=CC(=O)CC[C@@H]4[C@H]3C(=C)C[C@@]21CC` [Drug C, Etonogestrel], the “Water Solubility” value in data set [1] is below 7 µg/mL. The log partition coefficient (logP) in data set [2] is reported as 3.40.

Take `C[C@@H](O)[C@@H]1NC(=O)[C@H](CCCCN)NC(=O)[C@@H](Cc2c[nH]c3ccccc23)NC(=O)[C@H](Cc2ccccc2)NC(=O)[C@@H](NC(=O)[C@H](N)Cc2ccccc2)CSSC[C@@H](C(=O)N[C@H](CO)[C@@H](C)O)NC1=O` [Drug D, Octreotide]: in data set [1], the “Water Solubility” value was above 10000 µg/mL.
